“And” between values parts separate entries of the source, which are not always exact repeats. Equal entries are not always repeated. Where two headings read alike, the source gives them in different places.
Legend:
[1] = target: broad panel of kinases (Homo sapiens, UniProt Q92772); type: binding; conditions: CDKL2; 1 μM
[2] = target: broad panel of kinases (Homo sapiens, UniProt O95382); type: binding; conditions: ASK2; 1 μM
[3] = target: broad panel of kinases (Homo sapiens, UniProt P36896); type: binding; conditions: ACVR1B; 1 μM
[4] = target: broad panel of kinases (Homo sapiens, UniProt P22607, G697C); type: binding; conditions: FGFR3(G697C); 1 μM
[5] = target: broad panel of kinases (Homo sapiens, UniProt P29597); type: binding; conditions: 1 μM
[6] = target: broad panel of kinases (Homo sapiens, UniProt P51813); type: binding; conditions: BMX; 1 μM
[7] = target: broad panel of kinases (Homo sapiens, UniProt Q8IY84); type: binding; conditions: NIM1; 1 μM
[8] = target: broad panel of kinases (Homo sapiens, UniProt Q00536); type: binding; conditions: PCTK1; 1 μM
[9] = target: broad panel of kinases (Homo sapiens, UniProt Q9Y616); type: binding; conditions: IRAK3; 1 μM
[10] = target: broad panel of kinases (Homo sapiens, UniProt P36888, R834Q); type: binding; conditions: FLT3(R834Q); 1 μM
[11] = target: broad panel of kinases (Homo sapiens, UniProt Q13233); type: binding; conditions: MAP3K1; 1 μM
[12] = target: broad panel of kinases (Homo sapiens, UniProt P24941); type: binding; conditions: CDK2; 1 μM
[13] = target: broad panel of kinases (Homo sapiens, UniProt P54760); type: binding; conditions: EPHB4; 1 μM
[14] = target: broad panel of kinases (Homo sapiens, UniProt Q15208); type: binding; conditions: NDR1; 1 μM
[15] = target: broad panel of kinases (Homo sapiens, UniProt P29317); type: binding; conditions: EPHA2; 1 μM
[16] = target: broad panel of kinases (Homo sapiens, UniProt P04629); type: binding; conditions: TRKA; 1 μM
[17] = target: broad panel of kinases (Plasmodium falciparum, UniProt P62344); type: binding
[18] = target: broad panel of kinases (Homo sapiens, UniProt Q9Y6E0); type: binding; conditions: MST3; 1 μM
[19] = target: broad panel of kinases (Homo sapiens, UniProt Q8WTQ7); type: binding; conditions: GRK7; 1 μM
[20] = target: broad panel of kinases (Homo sapiens, UniProt O00238); type: binding; conditions: BMPR1B; 1 μM
[21] = target: broad panel of kinases (Homo sapiens, UniProt P21860); type: binding; conditions: ERBB3; 1 μM
[22] = target: broad panel of kinases (Homo sapiens, UniProt P49137); type: binding
[23] = target: kinases in BCWM.1 cells (Homo sapiens, UniProt P23443); assay: KINATIV assay of compounds I-3 and I-9, lysate directly labeled with ATP-biotin probe (no GF); type: cell-based; conditions: p70S6K; Lys2; 1 μM, 90 min; no GF
Procedure: (§1) The cells were harvested and lysed. […] Bound kinases were identified and quantitated by ACTIVX as described in Patricelli et al., Biochemistry, 2007, 46(2): 350-358. The compounds were tested in duplicates against duplicate or quadruplicate control samples.

[24] = target: kinases in BCWM.1 cells (Homo sapiens, UniProt O94921); assay: as above; type: cell-based
Procedure: as §1

[25] = target: kinases in BCWM.1 cells (Homo sapiens, UniProt Q86UE8); assay: as above; type: cell-based; conditions: TLK2; Lys2; 1 μM, 90 min; no GF
Procedure: as §1

[26] = target: kinases in BCWM.1 cells (Homo sapiens, UniProt Q7RTN6); assay: as above; type: cell-based; conditions: STLK5; Activation Loop; 1 μM, 90 min; no GF
Procedure: as §1

[27] = target: kinases in BCWM.1 cells (Homo sapiens, UniProt Q9BYT3); assay: as above; type: cell-based; conditions: STK33; Lys2; 1 μM, 90 min; no GF
Procedure: as §1

[28] = system: kinases in BCWM.1 cells; assay: as above; type: cell-based; conditions: 1 μM, no GF
Procedure: as §1

[29] = target: kinases in BCWM.1 cells (Homo sapiens, UniProt Q9UKI8); assay: as above; type: cell-based; conditions: TLK1; Lys2; 1 μM, 90 min; no GF
Procedure: as §1

[30] = target: kinases in BCWM.1 cells (Homo sapiens, UniProt Q15349); assay: as above; type: cell-based; conditions: RSK3 domain1; Lys2; 1 μM, 90 min; no GF
Procedure: as §1

[31] = target: kinases in BCWM.1 cells (Homo sapiens, UniProt Q15208); assay: as above; type: cell-based; conditions: NDR1; Lys2; 1 μM, 90 min; no GF
Procedure: as §1

broad panel of kinases (Homo sapiens, UniProt P29317), sequence (P29317 24-976 limits assumed): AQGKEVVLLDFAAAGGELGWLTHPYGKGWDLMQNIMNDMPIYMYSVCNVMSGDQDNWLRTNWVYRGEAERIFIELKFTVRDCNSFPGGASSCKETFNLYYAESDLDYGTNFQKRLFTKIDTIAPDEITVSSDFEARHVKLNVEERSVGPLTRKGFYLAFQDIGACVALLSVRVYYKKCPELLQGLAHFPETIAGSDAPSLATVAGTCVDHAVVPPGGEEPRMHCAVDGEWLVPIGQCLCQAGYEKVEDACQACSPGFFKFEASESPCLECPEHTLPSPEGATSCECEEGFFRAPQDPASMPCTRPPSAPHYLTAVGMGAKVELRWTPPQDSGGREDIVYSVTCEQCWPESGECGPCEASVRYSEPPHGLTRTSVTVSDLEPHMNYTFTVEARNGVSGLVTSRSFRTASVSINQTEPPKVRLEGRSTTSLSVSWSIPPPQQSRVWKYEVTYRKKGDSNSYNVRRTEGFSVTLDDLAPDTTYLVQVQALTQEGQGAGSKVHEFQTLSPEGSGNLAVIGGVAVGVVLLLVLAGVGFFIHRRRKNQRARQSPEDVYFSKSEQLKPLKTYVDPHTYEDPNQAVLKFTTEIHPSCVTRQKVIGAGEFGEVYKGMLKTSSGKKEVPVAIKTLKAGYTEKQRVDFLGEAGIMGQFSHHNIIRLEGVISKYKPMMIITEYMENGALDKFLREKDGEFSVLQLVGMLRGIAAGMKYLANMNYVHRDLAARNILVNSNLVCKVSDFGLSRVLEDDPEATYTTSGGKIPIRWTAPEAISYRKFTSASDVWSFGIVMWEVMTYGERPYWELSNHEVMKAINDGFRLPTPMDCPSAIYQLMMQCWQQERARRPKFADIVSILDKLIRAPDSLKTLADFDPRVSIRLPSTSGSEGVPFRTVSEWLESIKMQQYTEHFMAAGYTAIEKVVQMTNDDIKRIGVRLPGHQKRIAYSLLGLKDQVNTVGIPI
broad panel of kinases (Homo sapiens, UniProt P04629), sequence (P04629 33-796 limits assumed): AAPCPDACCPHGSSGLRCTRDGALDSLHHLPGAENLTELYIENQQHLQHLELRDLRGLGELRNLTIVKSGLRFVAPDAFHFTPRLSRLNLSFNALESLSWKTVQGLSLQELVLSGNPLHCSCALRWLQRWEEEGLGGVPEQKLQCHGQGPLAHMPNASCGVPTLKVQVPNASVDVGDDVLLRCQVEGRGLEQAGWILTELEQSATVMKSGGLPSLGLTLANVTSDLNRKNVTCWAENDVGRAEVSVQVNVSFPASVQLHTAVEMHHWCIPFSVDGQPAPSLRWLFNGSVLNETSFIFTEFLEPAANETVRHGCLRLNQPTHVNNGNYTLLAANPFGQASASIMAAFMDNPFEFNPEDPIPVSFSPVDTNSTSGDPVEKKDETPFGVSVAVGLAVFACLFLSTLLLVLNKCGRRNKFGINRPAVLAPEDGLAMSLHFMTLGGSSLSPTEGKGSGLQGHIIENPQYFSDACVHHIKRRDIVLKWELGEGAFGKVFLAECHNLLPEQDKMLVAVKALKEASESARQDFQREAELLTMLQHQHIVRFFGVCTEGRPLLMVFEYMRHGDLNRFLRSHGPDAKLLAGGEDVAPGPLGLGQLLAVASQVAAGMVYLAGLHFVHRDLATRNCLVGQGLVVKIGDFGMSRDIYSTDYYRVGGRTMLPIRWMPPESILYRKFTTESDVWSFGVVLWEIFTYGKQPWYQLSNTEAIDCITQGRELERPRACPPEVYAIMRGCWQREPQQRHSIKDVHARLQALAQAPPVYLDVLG
broad panel of kinases (Homo sapiens, UniProt P22607, G697C), sequence (P22607 23-806 G697C limits assumed): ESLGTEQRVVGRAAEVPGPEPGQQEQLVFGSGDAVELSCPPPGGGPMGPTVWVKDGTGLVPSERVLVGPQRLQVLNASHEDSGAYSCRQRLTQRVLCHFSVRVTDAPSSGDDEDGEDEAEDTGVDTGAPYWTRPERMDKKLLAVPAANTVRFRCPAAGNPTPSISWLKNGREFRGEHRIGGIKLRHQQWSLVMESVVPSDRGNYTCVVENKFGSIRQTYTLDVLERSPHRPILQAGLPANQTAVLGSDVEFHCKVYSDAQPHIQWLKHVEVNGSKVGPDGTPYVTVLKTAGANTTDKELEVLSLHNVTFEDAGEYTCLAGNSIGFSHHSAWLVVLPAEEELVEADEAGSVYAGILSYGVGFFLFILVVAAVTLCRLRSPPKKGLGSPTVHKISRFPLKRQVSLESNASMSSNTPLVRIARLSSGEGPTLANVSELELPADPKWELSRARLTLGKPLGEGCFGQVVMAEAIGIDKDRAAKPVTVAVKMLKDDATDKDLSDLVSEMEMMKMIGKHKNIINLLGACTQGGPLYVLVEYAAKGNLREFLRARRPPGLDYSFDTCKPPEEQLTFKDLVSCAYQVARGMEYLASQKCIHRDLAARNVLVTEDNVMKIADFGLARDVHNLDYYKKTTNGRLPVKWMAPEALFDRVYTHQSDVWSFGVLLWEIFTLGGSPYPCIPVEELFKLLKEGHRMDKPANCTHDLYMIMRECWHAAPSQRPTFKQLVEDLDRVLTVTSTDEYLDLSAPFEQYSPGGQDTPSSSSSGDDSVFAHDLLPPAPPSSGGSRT
broad panel of kinases (Homo sapiens, UniProt P54760), sequence (P54760 16-987 limits assumed): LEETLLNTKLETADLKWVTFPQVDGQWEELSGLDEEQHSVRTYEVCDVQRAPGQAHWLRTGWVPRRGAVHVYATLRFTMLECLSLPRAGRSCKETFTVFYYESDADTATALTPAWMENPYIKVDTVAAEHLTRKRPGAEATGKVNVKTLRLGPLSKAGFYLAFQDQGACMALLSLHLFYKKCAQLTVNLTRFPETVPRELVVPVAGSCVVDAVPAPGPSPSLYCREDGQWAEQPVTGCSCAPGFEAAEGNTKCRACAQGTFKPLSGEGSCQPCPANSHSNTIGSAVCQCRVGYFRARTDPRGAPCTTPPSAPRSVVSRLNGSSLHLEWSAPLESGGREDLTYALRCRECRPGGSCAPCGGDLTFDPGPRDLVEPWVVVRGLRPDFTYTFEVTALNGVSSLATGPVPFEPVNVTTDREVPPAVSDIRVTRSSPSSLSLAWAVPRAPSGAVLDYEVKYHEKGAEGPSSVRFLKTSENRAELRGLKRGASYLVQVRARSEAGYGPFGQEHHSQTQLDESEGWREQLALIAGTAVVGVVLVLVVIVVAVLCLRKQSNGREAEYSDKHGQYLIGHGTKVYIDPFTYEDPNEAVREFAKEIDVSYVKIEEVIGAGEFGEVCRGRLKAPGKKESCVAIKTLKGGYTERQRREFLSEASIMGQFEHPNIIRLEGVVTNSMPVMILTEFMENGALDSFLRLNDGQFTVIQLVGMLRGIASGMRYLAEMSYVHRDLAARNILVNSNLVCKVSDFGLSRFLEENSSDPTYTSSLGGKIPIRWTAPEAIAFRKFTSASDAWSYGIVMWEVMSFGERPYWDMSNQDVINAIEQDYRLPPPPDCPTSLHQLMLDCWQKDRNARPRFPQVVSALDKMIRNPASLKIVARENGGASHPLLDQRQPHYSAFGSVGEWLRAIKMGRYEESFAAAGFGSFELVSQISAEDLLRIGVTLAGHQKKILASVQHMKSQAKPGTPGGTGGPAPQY
kinases in BCWM.1 cells (Homo sapiens, UniProt Q15208), sequence (Q15208 2-465 limits assumed): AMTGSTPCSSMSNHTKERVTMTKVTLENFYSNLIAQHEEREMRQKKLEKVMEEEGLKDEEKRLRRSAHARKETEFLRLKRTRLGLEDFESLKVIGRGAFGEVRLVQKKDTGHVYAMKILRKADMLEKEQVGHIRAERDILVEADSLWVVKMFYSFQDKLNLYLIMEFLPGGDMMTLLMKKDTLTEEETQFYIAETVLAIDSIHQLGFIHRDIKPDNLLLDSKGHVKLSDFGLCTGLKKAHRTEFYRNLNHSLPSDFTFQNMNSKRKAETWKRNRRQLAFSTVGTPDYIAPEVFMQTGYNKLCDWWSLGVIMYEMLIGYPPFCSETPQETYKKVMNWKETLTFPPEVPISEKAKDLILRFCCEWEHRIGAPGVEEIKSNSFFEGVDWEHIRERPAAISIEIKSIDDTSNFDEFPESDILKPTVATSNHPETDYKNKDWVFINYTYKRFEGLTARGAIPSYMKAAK
broad panel of kinases (Homo sapiens, UniProt Q15208), sequence (Q15208 2-465 limits assumed): as above
broad panel of kinases (Homo sapiens, UniProt O00238), sequence (O00238 14-502 limits assumed): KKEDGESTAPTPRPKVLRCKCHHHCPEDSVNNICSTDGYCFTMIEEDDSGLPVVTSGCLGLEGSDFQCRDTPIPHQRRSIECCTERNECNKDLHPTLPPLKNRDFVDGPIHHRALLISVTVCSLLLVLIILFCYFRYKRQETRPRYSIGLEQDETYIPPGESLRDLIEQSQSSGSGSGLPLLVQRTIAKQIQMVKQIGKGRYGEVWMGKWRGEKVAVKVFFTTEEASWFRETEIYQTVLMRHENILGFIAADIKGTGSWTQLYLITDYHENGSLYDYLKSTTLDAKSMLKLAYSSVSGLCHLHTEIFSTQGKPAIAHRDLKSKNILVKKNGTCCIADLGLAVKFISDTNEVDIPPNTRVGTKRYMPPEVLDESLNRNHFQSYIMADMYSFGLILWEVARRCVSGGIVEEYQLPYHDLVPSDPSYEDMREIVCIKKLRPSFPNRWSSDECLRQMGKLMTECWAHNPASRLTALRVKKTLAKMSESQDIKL
broad panel of kinases (Plasmodium falciparum, UniProt P62344), sequence (P62344 2-524 limits assumed): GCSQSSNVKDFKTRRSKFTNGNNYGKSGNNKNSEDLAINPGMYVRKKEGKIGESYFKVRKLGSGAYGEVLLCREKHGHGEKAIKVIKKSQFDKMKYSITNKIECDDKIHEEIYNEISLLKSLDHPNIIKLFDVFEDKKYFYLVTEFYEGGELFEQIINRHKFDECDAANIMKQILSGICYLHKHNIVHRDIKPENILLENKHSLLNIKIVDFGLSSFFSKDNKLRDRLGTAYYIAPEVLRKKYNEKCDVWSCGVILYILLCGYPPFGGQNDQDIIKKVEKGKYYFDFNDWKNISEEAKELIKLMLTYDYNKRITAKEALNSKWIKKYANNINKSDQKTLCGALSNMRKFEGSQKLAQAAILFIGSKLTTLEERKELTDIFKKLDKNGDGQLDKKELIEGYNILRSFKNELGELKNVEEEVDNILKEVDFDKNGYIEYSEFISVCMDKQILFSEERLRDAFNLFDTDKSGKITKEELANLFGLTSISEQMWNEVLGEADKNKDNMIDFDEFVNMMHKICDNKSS

SMILES: C=CC(=O)N1CC[C@H](Nc2nccc(Nc3ncc(C(=O)Nc4c(C)cccc4C)s3)n2)C1 [Example I-3]
- percent of control binding remaining (lower = stronger binding) [1]: 78%
- percent of control binding remaining (lower = stronger binding) [2]: 98%
- percent of control binding remaining (lower = stronger binding) [3]: 100%
- % change compared to control [4]: 99%
- percent of control binding remaining (lower = stronger binding) ([5]; TYK2(JH1domain-catalytic)): 91%
- percent of control binding remaining (lower = stronger binding) ([5]; TYK2(JH2domain-pseudokinase)): 26%
- percent of control binding remaining (lower = stronger binding) [6]: 4.9%
- percent of control binding remaining (lower = stronger binding) [7]: 84%
- percent of control binding remaining (lower = stronger binding) [8]: 100%
- percent of control binding remaining (lower = stronger binding) [9]: 93%
- percent of control binding remaining (lower = stronger binding) [10]: 100%
- percent of control binding remaining (lower = stronger binding) [11]: 80%
- percent of control binding remaining (lower = stronger binding) [12]: 100%
- percent of control binding remaining (lower = stronger binding) [13]: 0%
- percent of control binding remaining (lower = stronger binding) [14]: 74%
- percent of control binding remaining (lower = stronger binding) [15]: 0.6%
- percent of control binding remaining (lower = stronger binding) [16]: 99%
- % change compared to control [17]: 8.1%
- percent of control binding remaining (lower = stronger binding) [18]: 100%
- percent of control binding remaining (lower = stronger binding) [19]: 96%
- percent of control binding remaining (lower = stronger binding) [20]: 45%
- percent of control binding remaining (lower = stronger binding) [21]: 0.8%
- % change compared to control [22]: 100%
- % change of MS signal compared to control sample [23]: −77.2%
- % change of MS signal compared to control sample [24]: 0.9%
- % change of MS signal compared to control sample [25]: −3%
- % change of MS signal compared to control sample [26]: 10.4%
- % change of MS signal compared to control sample [27]: −6.1%
- % change of MS signal compared to control sample ([28]; ABL, ARG, Activation Loop): 75.4% and 93.5%
- % change of MS signal compared to control sample ([28]; ABL, ARG, Lys1): 86.9% and 93.2%
- % change of MS signal compared to control sample ([28]; AKT2, AKT3, ATP Loop): −19.2% and −14.5%
- % change of MS signal compared to control sample ([28]; AurA, AurB, AurC, ATP Loop): 7.7% and 4.7%
- % change of MS signal compared to control sample ([28]; FYN, SRC, YES, Activation Loop): 87.3% and 85.7%
- % change of MS signal compared to control sample ([28]; MARK3, MARK4, Lys1): 2.5% and −4%
- % change of MS signal compared to control sample ([28]; MER, TYRO3, Activation Loop): 2.4% and 0.4%
- % change of MS signal compared to control sample ([28]; MST4, YSK1, Lys2, 90 min): 18.1%
- % change of MS signal compared to control sample ([28]; NEK6, NEK7, Lys2, 90 min): 6.4%
- % change of MS signal compared to control sample ([28]; PCTAIRE2, PCTAIRE3, Lys1, 90 min): −0.4%
- % change of MS signal compared to control sample ([28]; PI4KA, PI4KAP2, ATP, 90 min): −3.7%
- % change of MS signal compared to control sample ([28]; PKACa, PKCb, Lys2, 90 min): 2.4%
- % change of MS signal compared to control sample ([28]; ROCK1, ROCK2, Lys2, 90 min): −22.2%
- % change of MS signal compared to control sample ([28]; RSK1 domain1, RSK2 domain1, RSK3 domain1, Lys2, 90 min): −14.8%
- % change of MS signal compared to control sample ([28]; SRPK1, SRPK2, Lys1, 90 min): −3%
- % change of MS signal compared to control sample ([28]; TAO1, TAO3, Lys2, 90 min): 7.8%
- % change of MS signal compared to control sample ([28]; Wnk1, Wnk2, Wnk3, Lys2, 90 min): 14.9%
- % change of MS signal compared to control sample ([28]; Wnk1, Wnk2, ATP Loop, 90 min): 13.1%
- % change of MS signal compared to control sample ([28]; ZC1/HGK, ZC2/TNIK, ZC3/MINK, Lys2, 90 min): 2.7%
- % change of MS signal compared to control sample ([28]; p38d, p38g, Lys2, 90 min): 5.7%
- % change of MS signal compared to control sample [29]: −0.7%
- % change of MS signal compared to control sample [30]: 7.6%
- % change of MS signal compared to control sample [31]: 2.3%
